In patent US4096257A, “Substituted imidazo [1,2-d]-as-triazines” (American Cyanamid Company, priority 1977, dated 1978):

Test system: Mouse Skin Phosphodiesterase (cyclic-AMP phosphodiesterase)
Assay: mouse skin phosphodiesterase (PDE) inhibition test
Assay type: biochemical
Parameters: key to Mouse Skin Phosphodiesterase: Active: A compound is considered active if it inhibits more than theophylline, that is, to 50% of control at 1 mM concentration of compound, or to 80% of control of 0.05 mM concentration of compound
Conditions: for Mouse Skin Phosphodiesterase: hairless mouse epidermal PDE, 3H-cyclic AMP substrate, final concentration of test compounds 10 ug./ml

| SMILES | Mouse Skin Phosphodiesterase | inhibition of skin phosphodiesterase, % of control (0.05 mM concentration of compound) | inhibition of skin phosphodiesterase, % of control (1 mM concentration of compound) |
| --- | --- | --- | --- |
| CCCc1n[nH]c(=O)c2nccn12 [5-n-propyl-imidazo[1,2-d]-as-triazin-8(7H)-one] | Active |  |  |
| O=c1[nH]nc(-c2ccccc2)n2ccnc12 [5-phenyl-imidazo[1,2-d]-as-triazin-8(7H)-one] | Active |  |  |
| Cn1c(=O)c2[nH]cnc2n(C)c1=O [theophylline] |  | 80 % of control | 50 % of control |
